# Data from PubChem BioAssay (NCI).
#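 Step 1: Grow cells in 96-well plates. Step 2: Expose to compound for 48 hours at 5 concentrations. Step 3: Interpolate endpoints linearly; if unreached, use highest concentration. GI50 marks 50% less growth. TGI denotes the concentration required for complete inhibition of growth.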
# Experiments:
# Experiment in all cases: NCI anticancer screen, dose series, 48 h
# [1] = system: 786-0 renal
# [2] = system: A498 renal
# [3] = system: A549 NSCLC
# [4] = system: ACHN renal
# [5] = system: BT-549 breast
# [6] = system: CAKI-1 renal
# [7] = system: CCRF-CEM leukemia
# [8] = system: COLO 205 colon
# [9] = system: DU-145 prostate
# [10] = system: EKVX NSCLC
# [11] = system: HCC-2998 colon
# [12] = system: HCT-116 colon
# [13] = system: HCT-15 colon
# [14] = system: HL-60(TB) leukemia
# [15] = system: HOP-62 NSCLC
# [16] = system: HOP-92 NSCLC
# [17] = system: HS 578T breast
# [18] = system: HT29 colon
# [19] = system: IGROV1 ovarian
# [20] = system: K-562 leukemia
# [21] = system: KM12 colon
# [22] = system: LOX IMVI melanoma
# [23] = system: M14 melanoma
# [24] = system: MALME-3M melanoma
# [25] = system: MCF7 breast
# [26] = system: MDA-MB-231 breast
# [27] = system: MDA-MB-435
# [28] = system: MOLT-4 leukemia
# [29] = system: NCI-H226 lung
# [30] = system: NCI-H23 lung
# [31] = system: NCI-H460 lung
# [32] = system: NCI-H522 lung
# [33] = system: NCI/ADR-RES ovarian
# [34] = system: OVCAR-3 ovarian
# [35] = system: OVCAR-4 ovarian
# [36] = system: OVCAR-5 ovarian
# [37] = system: OVCAR-8 ovarian
# [38] = system: PC-3 prostate
# [39] = system: RPMI-8226 leukemia
# [40] = system: RXF 393 renal
# [41] = system: SF-268 CNS
# [42] = system: SF-295 CNS
# [43] = system: SF-539 CNS
# [44] = system: SK-MEL-2 melanoma
# [45] = system: SK-MEL-28 melanoma
# [46] = system: SK-MEL-5 melanoma
# [47] = system: SK-OV-3 ovarian
# [48] = system: SN12C renal
# [49] = system: SNB-19 CNS
# [50] = system: SR leukemia
# [51] = system: SW-620 colon
# [52] = system: T-47D breast
# [53] = system: TK-10 renal
# [54] = system: U251 CNS
# [55] = system: UACC-257 melanoma
# [56] = system: UACC-62 melanoma
# [57] = system: UO-31 renal
# [58] = system: MDA-N
# [59] = system: SNB-75 CNS
smiles,measurement,setting,value
C#CCOc1cccc(Nc2ncnc3cc(NC(=O)CCl)ccc23)c1,GI50,[1],4.68 µM
same,TGI,[1],18.5 µM
same,GI50,[2],12.7 µM
same,TGI,[2],25.9 µM
same,GI50,[3],5.03 µM
same,TGI,[3],17.9 µM
same,GI50,[4],4.9 µM
same,TGI,[4],18 µM
same,GI50,[5],6.08 µM
same,TGI,[5],20.3 µM
same,GI50,[6],3.51 µM
same,TGI,[6],15 µM
same,GI50,[7],1550 nM
same,TGI,[7],8.85 µM
same,GI50,[8],5.04 µM
same,TGI,[8],19.8 µM
same,GI50,[9],10 µM
same,TGI,[9],21.6 µM
same,GI50,[10],12 µM
same,TGI,[10],30 µM
same,GI50,[11],8.83 µM
same,TGI,[11],22.6 µM
same,GI50,[12],1960 nM
same,TGI,[12],10.2 µM
same,GI50,[13],1510 nM
same,TGI,[13],6.8 µM
same,GI50,[14],3.29 µM
same,TGI,[14],12.5 µM
same,GI50,[15],11.3 µM
same,TGI,[15],28.8 µM
same,GI50,[16],12.4 µM
same,TGI,[16],27.3 µM
same,GI50,[17],3.61 µM
same,TGI,[17],26.9 µM
same,GI50,[18],2080 nM
same,TGI,[18],6.11 µM
same,GI50,[19],2780 nM
same,TGI,[19],11.9 µM
same,GI50,[20],628 nM
same,TGI,[20],4.69 µM
same,GI50,[21],4.34 µM
same,TGI,[21],16.8 µM
same,GI50,[22],1190 nM
same,TGI,[22],2700 nM
same,GI50,[23],5.11 µM
same,TGI,[23],20.4 µM
same,GI50,[24],5.21 µM
same,TGI,[24],20.5 µM
same,GI50,[25],1950 nM
same,TGI,[25],7.99 µM
same,GI50,[26],5.28 µM
same,TGI,[26],19.9 µM
same,GI50,[27],3.1 µM
same,TGI,[27],16.4 µM
same,GI50,[28],1960 nM
same,TGI,[28],7.42 µM
same,GI50,[29],10.7 µM
same,TGI,[29],32.7 µM
same,GI50,[30],3.4 µM
same,TGI,[30],16.7 µM
same,GI50,[31],3.64 µM
same,TGI,[31],12.1 µM
same,GI50,[32],1460 nM
same,TGI,[32],3.34 µM
same,GI50,[33],4.13 µM
same,TGI,[33],42.9 µM
same,GI50,[34],1840 nM
same,TGI,[34],4.35 µM
same,GI50,[35],12.1 µM
same,TGI,[35],35.7 µM
same,GI50,[36],10.3 µM
same,TGI,[36],23 µM
same,GI50,[37],3.32 µM
same,TGI,[37],11 µM
same,GI50,[38],2570 nM
same,TGI,[38],12 µM
same,GI50,[39],3.44 µM
same,TGI,[39],10.4 µM
same,GI50,[40],13.2 µM
same,TGI,[40],27.7 µM
same,GI50,[41],4.32 µM
same,TGI,[41],19.7 µM
same,GI50,[42],3.52 µM
same,TGI,[42],15.2 µM
same,GI50,[43],3.64 µM
same,TGI,[43],15 µM
same,GI50,[44],12.4 µM
same,TGI,[44],27.4 µM
same,GI50,[45],11 µM
same,TGI,[45],24.4 µM
same,GI50,[46],6.31 µM
same,TGI,[46],19.4 µM
same,GI50,[47],4.36 µM
same,TGI,[47],17.2 µM
same,GI50,[48],4.1 µM
same,TGI,[48],17.3 µM
same,GI50,[49],4.98 µM
same,TGI,[49],18.4 µM
same,GI50,[50],490 nM
same,TGI,[50],5.59 µM
same,GI50,[51],1230 nM
same,TGI,[51],3.25 µM
same,GI50,[52],9.11 µM
same,TGI,[52],32 µM
same,GI50,[53],5.22 µM
same,TGI,[53],19.3 µM
same,GI50,[54],2130 nM
same,TGI,[54],4.78 µM
same,GI50,[55],15.4 µM
same,TGI,[55],32.3 µM
same,GI50,[56],4.24 µM
same,TGI,[56],16.9 µM
same,GI50,[57],3.31 µM
same,TGI,[57],15.7 µM
COI1NC(=O)c2ccccc21,TGI,[1],> 100 µM
same,TGI,[2],> 100 µM
same,TGI,[3],> 100 µM
same,TGI,[4],> 100 µM
same,TGI,[7],> 100 µM
same,TGI,[8],> 100 µM
same,TGI,[9],> 100 µM
same,TGI,[10],> 100 µM
same,TGI,[12],> 100 µM
same,TGI,[13],> 100 µM
same,TGI,[14],> 100 µM
same,TGI,[15],> 100 µM
same,TGI,[16],> 100 µM
same,TGI,[17],> 100 µM
same,TGI,[18],> 100 µM
same,TGI,[19],> 100 µM
same,TGI,[20],> 100 µM
same,TGI,[21],> 100 µM
same,TGI,[22],> 100000 nM
same,TGI,[23],> 100 µM
same,TGI,[24],> 100 µM
same,TGI,[25],> 100 µM
same,TGI,[26],> 100 µM
same,TGI,[27],> 100 µM
same,TGI,[58],> 100 µM
same,TGI,[28],> 100 µM
same,TGI,[29],> 100 µM
same,TGI,[30],> 100 µM
same,TGI,[32],> 100 µM
same,TGI,[33],> 100 µM
same,TGI,[34],> 100 µM
same,TGI,[35],> 100 µM
same,TGI,[36],> 100 µM
same,TGI,[37],> 100 µM
same,TGI,[38],> 100 µM
same,TGI,[39],> 100 µM
same,TGI,[41],> 100 µM
same,TGI,[42],> 100 µM
same,TGI,[44],> 100 µM
same,TGI,[45],> 100 µM
same,TGI,[46],> 100 µM
same,TGI,[47],> 100 µM
same,TGI,[48],> 100 µM
same,TGI,[49],> 100 µM
same,TGI,[59],> 100 µM
same,TGI,[50],> 100 µM
same,TGI,[51],> 100 µM
same,TGI,[53],> 100 µM
same,TGI,[54],> 100 µM
same,TGI,[56],> 100 µM
same,TGI,[57],> 100 µM
